Data on 3 compounds can be found in publication PMC12472352, “The Activation of Cytochrome P450 2C9 Is Facilitated by the Coenzyme Forms of Vitamin B2” (Molecules, 2025).

For orientation: Kd means the concentration at which binding is half-saturated.

For series [1], the target named is T1, cytochrome P450 2C9 (CYP2C9) (Homo sapiens, UniProt P11712). Put plainly: UV-vis absorption spectral titration (Soret peak) of purified recombinant CYP2C9; also electrochemical activation. In kind it is binding.
For series [2], the target named is T1, cytochrome P450 2C9 (CYP2C9). Description: electrochemical diclofenac […]'-hydroxylation by purified CYP2C9 with FMN ([…]); relative activity […]. Type of series: biochemical.
The target is the same in series [3]. Description: amperometric titration (KM) on CYP2C9 + FMN electrode; […]'-hydroxydiclofenac formation by square-wave voltammetry. In kind it is biochemical.

T1 sequence (P11712 whole entry): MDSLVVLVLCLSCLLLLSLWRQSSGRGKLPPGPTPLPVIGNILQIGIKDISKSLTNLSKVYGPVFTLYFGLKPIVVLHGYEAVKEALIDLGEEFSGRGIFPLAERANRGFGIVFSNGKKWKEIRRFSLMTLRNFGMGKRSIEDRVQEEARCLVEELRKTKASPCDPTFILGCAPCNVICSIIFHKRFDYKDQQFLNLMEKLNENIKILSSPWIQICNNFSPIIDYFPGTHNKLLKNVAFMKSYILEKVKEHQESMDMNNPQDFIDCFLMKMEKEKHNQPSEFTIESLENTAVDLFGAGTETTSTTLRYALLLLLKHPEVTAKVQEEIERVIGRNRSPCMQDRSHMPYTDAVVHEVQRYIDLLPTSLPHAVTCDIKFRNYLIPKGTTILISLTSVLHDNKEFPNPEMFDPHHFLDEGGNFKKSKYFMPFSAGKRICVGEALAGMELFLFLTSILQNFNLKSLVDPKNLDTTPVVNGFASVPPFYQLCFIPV

For the compound `Cc1cc2nc3c(=O)[nH]c(=O)nc-3n(C[C@H](O)[C@H](O)[C@H](O)COP(=O)(O)OP(=O)(O)OC[C@H]3O[C@@H](n4cnc5c(N)ncnc54)[C@H](O)[C@@H]3O)c2cc1C` [FAD], the dissociation constant (Kd) in series [1] was found to be 174 ± 52 µM.

Take `Cc1cc2nc3c(=O)[nH]c(=O)nc-3n(C[C@H](O)[C@H](O)[C@H](O)COP(=O)(O)O)c2cc1C` [FMN]: the “Relative Activity, %” value in series [2] is 113 ± 6%.

Turning to `O=C(O)Cc1ccccc1Nc1c(Cl)cccc1Cl` [diclofenac, 2-[2-(2,6-dichloroanilino)-phenyl]acetic acid], the “KM, M” value in series [3] is “(5.49 ± 0.52) ×10^−5 M”.
